Experimental data published in ChEMBL document CHEMBL1149950, “The synthesis and anti-hiv activity of pyrimidine dioxolanyl nucleosides” (Bioorg Med Chem Lett, 1993).

Experiments:
[1] = Tested in vitro for the antiviral assay in mitogen stimulated human peripheral blood mononuclear (PBM) cells infected with HIV-1 (strain LAV); type: functional
[2] = system: Vero; test: Tested in vitro for the cytotoxic activity against uninfected Vero cells; type: functional, cell-based; conditions: Chlorocebus sabaeus
[3] = Tested in vitro for the cytotoxic activity against uninfected human peripheral blood mononuclear (PBM) cells; type: functional
[4] = system: CCRF-CEM; test: Tested in vitro for the cytotoxic activity against uninfected CEM cells; type: functional, cell-based; conditions: Homo sapiens
[5] = system: MT4; test: Tested in vitro for the cytotoxic activity against uninfected MT-4 cells at 200 uM; type: functional; conditions: Homo sapiens
[6] = system: MT4; test: Tested in vitro for the cytotoxic activity against uninfected MT-4 cells; type: functional, cell-based; conditions: Homo sapiens

| SMILES | EC50 [1] [µM] | IC50 [2] [µM] | IC50 [3] [µM] | IC50 [4] [µM] | inhibition at 200 µM [5] [%] | IC50 [6] [µM] |
| --- | --- | --- | --- | --- | --- | --- |
| O=c1[nH]c(=O)n([C@H]2CO[C@@H](CO)O2)cc1F | 28.5 | > 100 | > 100 | > 100 |  |  |
| Nc1ccn([C@H]2CO[C@@H](CO)O2)c(=O)n1 | 0.005 | 0.17 | > 100 | 0.08 | 66 |  |
| O=c1[nH]c(=O)n([C@H]2CO[C@@H](CO)O2)cc1Br | 2.8 | > 100 | > 100 |  |  | > 200 |
| CCc1cn(C2COC(CO)O2)c(=O)[nH]c1=O (stereo not drawn) | > 100 | > 100 | > 100 |  | 30 |  |
| O=c1[nH]c(=O)n(C2COC(CO)O2)cc1C(F)(F)F (stereo not drawn) | 93 | > 100 | > 100 |  |  | > 200 |
| O=c1[nH]c(=O)n(C2COC(CO)O2)cc1Cl (stereo not drawn) | 1.7 | > 100 | > 100 |  |  | > 200 |
| O=c1[nH]c(=O)n(C2COC(CO)O2)cc1I (stereo not drawn) | > 100 | > 100 | > 100 |  |  | > 200 |
| O=c1ccn([C@H]2CO[C@@H](CO)O2)c(=O)[nH]1 | 57.5 | > 100 | > 100 |  |  | > 200 |
